Experimental data from patent publication US8785436B2, “1,3-oxazines as BACE 1 and/or BACE2 inhibitors” (Hoffmann-La Roche Inc., priority 2011, dated 2014).
Structures can show the parent of a compound that is named as a salt.

Biological target: T1, BACE1 (Homo sapiens, UniProt P56817)
T1 construct: Human HEK293 cells which are stably transfected with a vector expressing a cDNA of the human APP wt gene (APP695); endogenous in cells; host or cells: HEK293 cells stably expressing human APP695 wt
Test: Cellular Aβ-lowering assay a) (Aβ40 ELISA, HEK293 APP cells)
Format: cell-based
Conditions: cellular assay a): HEK293 APP695 cells, 18-20 hrs incubation, read-out: BACE1 cell act. Aβ40 IC50
Method: Cellular Aβ-Lowering Assay:
a) Human HEK293 cells which are stably transfected with a vector expressing a cDNA of the human APP wt gene (APP695) were used to assess the potency of the compounds in a cellular assay. The cells were seeded in 96-well microtiter plates in cell culture medium (Iscove, plus 10% (v/v) fetal bovine serum, glutamine, penicillin/streptomycin) to about 80% confluence and the compounds were added at a 10× concentration in 1/10 volume of medium without FCS containing 8% DMSO (final concentration of DMSO was kept at 0.8% v/v). After 18-20 hrs incubation at 37° C. and 5% CO2 in a humidified incubator the culture supernatant was harvested for the determination of Aβ40 concentrations. 96 well ELISA plates (e.g., Nunc MaxiSorb) were coated with monoclonal antibody which specifically recognize the C-terminal end of Aβ40 (Brockhaus et al., NeuroReport 9, 1481-1486; 1998). After blocking of non-specific binding sites with e.g. 1% BSA and washing, the culture supernatants were added in suitable dilutions together with a horseradish peroxidase-coupled Aβ detection antibody (e.g., antibody 4G8, Senetek, Maryland Heights, Mo.) and incubated for 5 to 7 hrs. Subsequently the wells of the microtiter plate were washed extensively with Tris-buffered saline containing 0.05% Tween 20 and the assay was developed with tetramethylbenzidine/H2O2 in citric acid buffer. After stopping the reaction with one volume 1 NH2SO4 the reaction was measured in an ELISA reader at 450 nm wavelength. The concentrations of Aβ in the culture supernatants were calculated from a standard curve obtained with known amounts of pure Aβ peptide.

T1 sequence (P56817 46-501): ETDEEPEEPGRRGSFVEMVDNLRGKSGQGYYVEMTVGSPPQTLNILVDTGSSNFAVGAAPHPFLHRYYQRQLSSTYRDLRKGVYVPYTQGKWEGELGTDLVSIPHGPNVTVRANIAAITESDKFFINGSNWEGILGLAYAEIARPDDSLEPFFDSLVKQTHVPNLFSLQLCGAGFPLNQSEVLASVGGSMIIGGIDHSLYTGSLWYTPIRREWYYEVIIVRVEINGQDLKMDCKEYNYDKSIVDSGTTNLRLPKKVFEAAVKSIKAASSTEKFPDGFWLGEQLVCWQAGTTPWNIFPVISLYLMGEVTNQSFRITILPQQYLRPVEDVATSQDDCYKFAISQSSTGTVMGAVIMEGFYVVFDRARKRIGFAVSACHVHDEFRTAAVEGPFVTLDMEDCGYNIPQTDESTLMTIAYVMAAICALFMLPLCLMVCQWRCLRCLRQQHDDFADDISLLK

SMILES	IC50 [nM]
CC(Nc1ccc(F)c([C@@]2(C)N=C(N)OCC2(F)F)c1)c1nn(CC(F)F)cc1Cl (mixture of isomers) [Example 19, (R)-4-(5-{(RS)-1-[4-Chloro-1-(2,2-difluoro-ethyl)-1H-pyrazol-3-yl]-ethylamino}-2-fluoro-phenyl)-5,5-difluoro-4-methyl-5,6-dihydro-4H-[1,3]oxazin-2-ylamine]	1800
CC(Nc1ccc(F)c([C@@]2(C)N=C(N)OCC2(F)F)c1)c1cc(C2CC2)on1 (mixture of isomers) [Example 20, (R)-4-{5-[(RS)-1-(5-Cyclopropyl-isoxazol-3-yl)-ethylamino]-2-fluoro-phenyl}-5,5-difluoro-4-methyl-5,6-dihydro-4H-[1,3]oxazin-2-ylamine]	2000
C[C@]1(c2cc(NC3CCOC3)ccc2F)N=C(N)OCC1(F)F (mixture of isomers) [Example 26, (R)-5,5-Difluoro-4-{2-fluoro-5-[(RS)-(tetrahydro-furan-3-yl)amino]-phenyl}-4-methyl-5,6-dihydro-4H-[1,3]oxazin-2-ylamine]	400
C[C@]1(c2cc(NC3CCCc4cc(C#N)cnc43)ccc2F)N=C(N)OCC1(F)F (mixture of isomers) [Example 27, (RS)-8-[3-((R)-2-Amino-5,5-difluoro-4-methyl-5,6-dihydro-4H-[1,3]oxazin-4-yl)-4-fluoro-phenylamino]-5,6,7,8-tetrahydro-quinoline-3-carbonitrile]	460
C[C@]1(c2cc(NCC3CCOC3)ccc2F)N=C(N)OCC1(F)F (mixture of isomers) [Example 30, (R)-5,5-Difluoro-4-{2-fluoro-5-{[(RS)-1-(tetrahydro-furan-3-yl)methyl]-amino}-phenyl}-4-methyl-5,6-dihydro-4H-[1,3]oxazin-2-ylamine]	2160
C[C@@]1(c2cc(NC3CCCC3)ccc2F)CCOC(N)=N1 [Example 2, (S)-4-(5-Cyclopentylamino-2-fluoro-phenyl)-4-methyl-5,6-dihydro-4H-[1,3]oxazin-2-ylamine]	340
C[C@]1(c2cc(NCc3ccsc3)ccc2F)N=C(N)OC[C@@H]1F [Example 6, (4R,5R)-5-Fluoro-4-{2-fluoro-5-[(thiophen-3-ylmethyl)-amino]-phenyl}-4-methyl-5,6-dihydro-4H-[1,3]oxazin-2-ylamine]	660
C[C@]1(c2cc(-c3cncc(C#N)c3)ccc2F)N=C(N)OC[C@@H]1F [Example 9, 5-[3-((4R,5R)-2-Amino-5-fluoro-4-methyl-5,6-dihydro-4H-[1,3]oxazin-4-yl)-4-fluoro-phenyl]-nicotinonitrile]	190
C[C@]1(c2cc(-c3cnn(-c4ccc(F)cc4)c3)ccc2F)N=C(N)OC[C@@H]1F [Example 10, (4R,5R)-5-Fluoro-4-{2-fluoro-5-[1-(4-fluoro-phenyl)-1H-pyrazol-4-yl]-phenyl}-4-methyl-5,6-dihydro-4H-[1,3]oxazin-2-ylamine Hydrochloride]	360
Cc1cnn(-c2ccc(F)c([C@@]3(C)N=C(N)OC[C@@H]3F)c2)c1 [Example 11, (4R,5R)-5-Fluoro-4-[2-fluoro-5-(4-methyl-pyrazol-1-yl)-phenyl]-4-methyl-5,6-dihydro-4H-[1,3]oxazin-2-ylamine]	1300
C[C@]1(c2cc(NC3COC3)ccc2F)N=C(N)OCC1(F)F [Example 29, (R)-5,5-Difluoro-4-[2-fluoro-5-(oxetan-3-ylamino)-phenyl]-4-methyl-5,6-dihydro-4H-[1,3]oxazin-2-ylamine]	1960
C#CCNC(=O)c1ccc(F)c([C@@]2(C)N=C(N)OCC2(F)F)c1 [Example 41, 3-((R)-2-Amino-5,5-difluoro-4-methyl-5,6-dihydro-4H-[1,3]oxazin-4-yl)-4-fluoro-N-prop-2-ynyl-benzamide]	6620
CC1(C)OC(N)=N[C@](C)(c2cc(Nc3ccccc3Cl)ccc2F)C1(F)F [Example 42, (R)-4-[5-(2-Chloro-phenylamino)-2-fluoro-phenyl]-5,5-difluoro-4,6,6-trimethyl-5,6-dihydro-4H-[1,3]oxazin-2-ylamine]	1470
Cc1ccccc1Nc1ccc(F)c([C@@]2(C)N=C(N)OC(C)(C)C2(F)F)c1 [Example 45, (R)-5,5-Difluoro-4-(2-fluoro-5-o-tolylamino-phenyl)-4,6,6-trimethyl-5,6-dihydro-4H-[1,3]oxazin-2-ylamine]	2920
CC1(C)OC(N)=N[C@](C)(c2cc(Nc3ccccc3C(F)(F)F)ccc2F)C1(F)F [Example 46, (R)-5,5-Difluoro-4-[2-fluoro-5-(2-trifluoromethyl-phenylamino)-phenyl]-4,6,6-trimethyl-5,6-dihydro-4H-[1,3]oxazin-2-ylamine]	6920
CC1(C)OC(N)=N[C@](C)(c2cc(-c3cncc(Cl)c3)ccc2F)C1(F)F [Example 50, (R)-4-[5-(5-Chloro-pyridin-3-yl)-2-fluoro-phenyl]-5,5-difluoro-4,6,6-trimethyl-5,6-dihydro-4H-[1,3]oxazin-2-ylamine Hydrochloride]	9080

Second part, the compound after the results:

IC50 [nM]	SMILES
430	Cc1cc(C(C)Nc2ccc(F)c([C@@]3(C)N=C(N)OCC3(F)F)c2)[nH]n1 (mixture of isomers) [Example 17, (R)-5,5-Difluoro-4-{2-fluoro-5-[(RS)-1-(5-methyl-2H-pyrazol-3-yl)-ethylamino]-phenyl}-4-methyl-5,6-dihydro-4H-[1,3]oxazin-2-ylamine]
1230	CC(Nc1ccc(F)c([C@@]2(C)N=C(N)OCC2(F)F)c1)c1nn(C)cc1Cl (mixture of isomers) [Example 18, (R)-4-{5-[(RS)-1-(4-Chloro-1-methyl-1H-pyrazol-3-yl)-ethylamino]-2-fluoro-phenyl}-5,5-difluoro-4-methyl-5,6-dihydro-4H-[1,3]oxazin-2-ylamine]
1630	C[C@]1(c2cc(NC3CS(=O)(=O)c4ccccc43)ccc2F)N=C(N)OCC1(F)F (mixture of isomers) [Example 28, (R)-4-[5-((RS)-1,1-Dioxo-2,3-dihydro-1H-1λ6-benzo[b]thiophen-3-ylamino)-2-fluoro-phenyl]-5,5-difluoro-4-methyl-5,6-dihydro-4H-[1,3]oxazin-2-ylamine]
5460	C[C@]1(c2cc3c(cc2F)OCC(c2ccc(Cl)cn2)N3)N=C(N)OCC1(F)F (mixture of isomers) [Example 38, (R)-4-[(RS)-3-(5-Chloro-pyridin-2-yl)-7-fluoro-3,4-dihydro-2H-benzo[1,4]oxazin-6-yl]-5,5-difluoro-4-methyl-5,6-dihydro-4H-[1,3]oxazin-2-ylamine]
300	CC1(CNc2ccc(F)c([C@@]3(C)N=C(N)OCC3(F)F)c2)COC1 [Example 24, (R)-5,5-Difluoro-4-{2-fluoro-5-[(3-methyl-oxetan-3-ylmethyl)-amino]-phenyl}-4-methyl-5,6-dihydro-4H-[1,3]oxazin-2-ylamine]
8440	C[C@]1(c2cc(-c3cnn(-c4ccc(F)cc4)c3)ccc2F)N=C(N)OCC1(F)F [Example 31, (R)-5,5-Difluoro-4-{2-fluoro-5-[1-(4-fluoro-phenyl)-1H-pyrazol-4-yl]-phenyl}-4-methyl-5,6-dihydro-4H-[1,3]oxazin-2-ylamine]
1400	C[C@]1(c2cccc(OCc3ccc(C#N)cc3)c2)N=C(N)OCC1(F)F [Example 34, 4-[3-((R)-2-Amino-5,5-difluoro-4-methyl-5,6-dihydro-4H-[1,3]oxazin-4-yl)-phenoxymethyl]-benzonitrile]
4000	C[C@]1(c2cccc(OCc3ccc(Cl)cc3)c2)N=C(N)OCC1(F)F [Example 35, (R)-4-[3-(4-Chloro-benzyloxy)-phenyl]-5,5-difluoro-4-methyl-5,6-dihydro-4H-[1,3]oxazin-2-ylamine]
7740	C[C@]1(c2cccc(OCc3ccc(C(F)(F)F)cc3)c2)N=C(N)OCC1(F)F [Example 36, (R)-5,5-Difluoro-4-methyl-4-[3-(4-trifluoromethyl-benzyloxy)-phenyl]-5,6-dihydro-4H-[1,3]oxazin-2-ylamine]
300	Cc1ccc(Cc2nc3ccc([C@@]4(C)N=C(N)OCC4(F)F)cc3[nH]2)cc1 [Example 37, (R)-5,5-Difluoro-4-methyl-4-[2-(4-methyl-benzyl)-3H-benzoimidazol-5-yl]-5,6-dihydro-4H-[1,3]oxazin-2-ylamine]
5670	COc1ccc(Cc2cc3cc(F)c([C@@]4(C)N=C(N)OCC4(F)F)cc3[nH]2)cc1 [Example 39, (R)-5,5-Difluoro-4-[5-fluoro-2-(4-methoxy-benzyl)-1H-indol-6-yl]-4-methyl-5,6-dihydro-4H-[1,3]oxazin-2-ylamine]
